Assay results: the supplement of paper PMC6045584
± gives the standard deviation of the averaged measurements.

Tests used:
MLN-4924 = compound: NS(=O)(=O)OC[C@@H]1C[C@@H](n2ccc3c(N[C@H]4CCc5ccccc54)ncnc32)C[C@@H]1O [MLN-4924]; experiment: surviving fraction relative to DMSO-only wells; higher = less growth inhibition; conditions: exposure time: 5 days
Method in brief: (§1)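 Surviving fraction was calculated by normalising CellTiter-Glo luminescence to the median of DMSO-only wells. Tumour cell lines in log phase were seeded in 384-well plates at 250–500 cells per well, and 24 hours later were exposed continuously for five days to inhibitors at 0.5, 1, 5, 10, 50, 100, 500 and 1000 nM.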

XAV-939 = compound: Oc1nc(-c2ccc(C(F)(F)F)cc2)nc2c1CSCC2 [XAV-939]; experiment: as above; conditions: exposure time: 5 days
Method in brief: as §1

Test System | surviving fraction (MLN-4924; 0.5 nM) | surviving fraction (MLN-4924; 1 nM) | surviving fraction (MLN-4924; 5 nM) | surviving fraction (MLN-4924; 10 nM) | surviving fraction (MLN-4924; 50 nM) | surviving fraction (MLN-4924; 100 nM) | surviving fraction (MLN-4924; 500 nM) | surviving fraction (MLN-4924; 1000 nM) | surviving fraction (XAV-939; 0.5 nM) | surviving fraction (XAV-939; 1 nM) | surviving fraction (XAV-939; 5 nM) | surviving fraction (XAV-939; 10 nM) | surviving fraction (XAV-939; 50 nM) | surviving fraction (XAV-939; 100 nM) | surviving fraction (XAV-939; 500 nM) | surviving fraction (XAV-939; 1000 nM)
22RV1 PROSTATE | 1.07 ± 0.05 | 0.967 ± 0.15 | 1.03 ± 0.12 | 0.81 ± 0.1 | 0.653 ± 0.048 | 0.47 ± 0.055 | 0.283 ± 0.058 | 0.26 ± 0.13 | 1.02 ± 0.072 | 1.05 ± 0.11 | 1.03 ± 0.032 | 1 ± 0.065 | 0.934 ± 0.024 | 0.977 ± 0.024 | 1 ± 0.12 | 1.03 ± 0.096
NY BONE | 1.05 ± 0.024 | 1.03 ± 0.02 | 1.18 ± 0.036 | 1.2 ± 0.04 | 0.82 ± 0.073 | 0.48 ± 0.0085 | 0.289 ± 0.0061 | 0.232 ± 0.0095 | 0.927 ± 0.024 | 0.98 ± 0.037 | 0.997 ± 0.018 | 1.06 ± 0.036 | 1.03 ± 0.053 | 1.02 ± 0.041 | 0.936 ± 0.032 | 0.924 ± 0.029
CHLA90 AUTONOMIC GANGLIA | 1.006 ± 0.0078 | 0.969 ± 0.05 | 0.984 ± 0.062 | 1.03 ± 0.019 | 1.2 ± 0.065 | 0.993 ± 0.028 | 0.697 ± 0.13 | 0.525 ± 0.041 | 1.01 ± 0.071 | 1.04 ± 0.051 | 0.989 ± 0.031 | 0.997 ± 0.045 | 0.975 ± 0.019 | 0.948 ± 0.067 | 0.987 ± 0.072 | 0.933 ± 0.022
143B BONE | 1.03 ± 0.023 | 1.01 ± 0.034 | 1.04 ± 0.033 | 1.018 ± 0.0099 | 0.961 ± 0.042 | 0.699 ± 0.028 | 0.062 ± 0.0042 | 0.033 ± 0.0028 | 0.977 ± 0.026 | 1.02 ± 0.012 | 0.952 ± 0.14 | 1.02 ± 0.042 | 0.911 ± 0.15 | 1.03 ± 0.044 | 0.922 ± 0.069 | 1.02 ± 0.023
T47D BREAST | 1.04 ± 0.012 | 1.02 ± 0.021 | 0.916 ± 0.036 | 0.835 ± 0.037 | 0.67 ± 0.023 | 0.694 ± 0.011 | 0.279 ± 0.019 | 0.27 ± 0.028 | 1.04 ± 0.074 | 1.08 ± 0.045 | 1.07 ± 0.02 | 1.09 ± 0.014 | 1.09 ± 0.044 | 1.13 ± 0.053 | 1.04 ± 0.052 | 1.05 ± 0.042
SG28 HEADNECK | 1.16 ± 0.16 | 1.16 ± 0.03 | 1.153 ± 0.0099 | 1.1 ± 0.032 | 0.726 ± 0.076 | 0.614 ± 0.1 | 0.296 ± 0.024 | 0.24 ± 0.0099 | 1.01 ± 0.11 | 1.11 ± 0.095 | 0.981 ± 0.083 | 0.967 ± 0.11 | 1.02 ± 0.14 | 0.958 ± 0.07 | 0.912 ± 0.075 | 0.91 ± 0.058
SUM159 BREAST | 1.11 ± 0.039 | 1.07 ± 0.043 | 1.08 ± 0.023 | 1.07 ± 0.017 | 1.05 ± 0.018 | 1.01 ± 0.012 | 0.75 ± 0.022 | 0.433 ± 0.02 | 1.17 ± 0.32 | 1.15 ± 0.19 | 1.14 ± 0.21 | 1.16 ± 0.22 | 1.12 ± 0.2 | 1.13 ± 0.18 | 1.09 ± 0.16 | 1.08 ± 0.11
MDAMB134 BREAST | 0.904 ± 0.21 | 1.036 ± 0.0099 | 0.934 ± 0.12 | 0.731 ± 0.1 | 0.562 ± 0.14 | 0.393 ± 0.03 | 0.267 ± 0.0035 | 0.281 ± 0.005 | 1.05 ± 0.052 | 0.999 ± 0.041 | 1.06 ± 0.17 | 0.93 ± 0.03 | 1.13 ± 0.1 | 1.06 ± 0.22 | 1.15 ± 0.052 | 1.03 ± 0.051
SG27 HEADNECK | 1.07 ± 0.041 | 1.1 ± 0.12 | 1.11 ± 0.055 | 1.16 ± 0.13 | 0.991 ± 0.17 | 0.823 ± 0.076 | 0.618 ± 0.098 | 0.322 ± 0.055 | 1.1 ± 0.076 | 0.993 ± 0.089 | 1 ± 0.058 | 1.02 ± 0.052 | 1.08 ± 0.049 | 0.966 ± 0.081 | 0.825 ± 0.062 | 0.802 ± 0.11
93VU HEADNECK | 1.01 ± 0.083 | 1.11 ± 0.068 | 1.09 ± 0.047 | 1.1 ± 0.051 | 0.828 ± 0.079 | 0.533 ± 0.034 | 0.166 ± 0.015 | 0.133 ± 0.0059 | 0.98 ± 0.073 | 1.06 ± 0.071 | 1.11 ± 0.091 | 1.07 ± 0.077 | 1.15 ± 0.095 | 1.17 ± 0.066 | 1.05 ± 0.089 | 0.907 ± 0.035
HCC202 BREAST | 1.14 ± 0.32 | 1.07 ± 0.26 | 1.24 ± 0.12 | 1.131 ± 0.0092 | 0.731 ± 0.22 | 0.557 ± 0.22 | 0.299 ± 0.066 | 0.265 ± 0.015 | 1.4 ± 0.094 | 1.23 ± 0.2 | 1.17 ± 0.094 | 0.972 ± 0.14 | 1.12 ± 0.18 | 0.905 ± 0.077 | 1.04 ± 0.2 | 0.953 ± 0.065
S68 BREAST | 0.837 ± 0.21 | 0.964 ± 0.11 | 0.764 ± 0.18 | 1.07 ± 0.19 | 0.6 ± 0.074 | 0.326 ± 0.05 | 0.172 ± 0.024 | 0.105 ± 0.007 | 0.722 ± 0.22 | 0.763 ± 0.12 | 1.14 ± 0.25 | 0.983 ± 0.32 | 1.19 ± 0.13 | 1.12 ± 0.22 | 0.829 ± 0.05 | 0.767 ± 0.076
PCI30 HEADNECK | 1.01 ± 0.028 | 1.01 ± 0.072 | 1.04 ± 0.023 | 0.939 ± 0.027 | 0.724 ± 0.028 | 0.701 ± 0.056 | 0.414 ± 0.015 | 0.377 ± 0.019 | 1.01 ± 0.029 | 0.975 ± 0.064 | 1.07 ± 0.04 | 1.057 ± 0.0035 | 1.06 ± 0.036 | 1.15 ± 0.065 | 0.945 ± 0.13 | 0.8693 ± 0.008
MCF7 BREAST | 0.889 ± 0.029 | 0.9226 ± 0.0022 | 0.935 ± 0.013 | 0.975 ± 0.027 | 0.641 ± 0.063 | 0.448 ± 0.062 | 0.265 ± 0.026 | 0.235 ± 0.016 | 0.941 ± 0.062 | 0.953 ± 0.07 | 0.954 ± 0.033 | 0.937 ± 0.023 | 1.01 ± 0.069 | 1.05 ± 0.041 | 1.03 ± 0.054 | 1.01 ± 0.061
HOSMNG BONE | 0.883 ± 0.092 | 0.897 ± 0.032 | 0.951 ± 0.024 | 0.917 ± 0.05 | 1.04 ± 0.14 | 1.08 ± 0.053 | 0.503 ± 0.18 | 0.097 ± 0.016 | 0.922 ± 0.14 | 1.01 ± 0.11 | 0.947 ± 0.077 | 0.934 ± 0.1 | 0.948 ± 0.17 | 0.944 ± 0.089 | 0.934 ± 0.069 | 1.06 ± 0.094
U2OS BONE | 1.028 ± 0.0045 | 1.01 ± 0.015 | 0.988 ± 0.04 | 1.03 ± 0.049 | 1.04 ± 0.036 | 0.859 ± 0.022 | 0.403 ± 0.028 | 0.176 ± 0.015 | 1.02 ± 0.028 | 1.04 ± 0.012 | 1.07 ± 0.032 | 1.06 ± 0.038 | 1.06 ± 0.014 | 1.04 ± 0.018 | 0.921 ± 0.02 | 0.8627 ± 0.0081
CADOES1 SOFT TISSUE | 0.993 ± 0.094 | 0.97 ± 0.047 | 0.913 ± 0.052 | 0.787 ± 0.057 | 0.879 ± 0.057 | 0.812 ± 0.082 | 0.0993 ± 0.014 | 0.053 ± 0.007 | 0.957 ± 0.1 | 0.993 ± 0.092 | 0.816 ± 0.0092 | 0.903 ± 0.049 | 0.857 ± 0.13 | 0.899 ± 0.094 | 0.922 ± 0.076 | 0.913 ± 0.091
